Assay results taken from patent publication US5268389A, “Thiocarboxylate ester compounds compositions containing the same” (priority 1990, dated 1993).
“And” between values parts separate entries of the source, which are not always exact repeats. Equal entries are not always repeated.

Assays:
[1] = tested on: HIV; assay: Reduction of HIV cytopathic effect, MT2V (MT2 cells, free virus); type: cell-based; details: Human immunodeficiency virus 1, read-out: Activity of Anti-HIV Compounds (EC50), MT2V
Experimental: (§1) The compounds of Examples were tested for anti-AIDS activity by subjecting them to standard National Cancer Institute ("NCI") in vitro screening procedures. In carrying out each test, two blanks were run. In the first blank, HIV and a culture of a standard human cell line were incubated together to measure the infectivity of the virus. The viability of the cells was measured after holding for six or seven days. In an "effective" test, most cells were infected before the holding period was complete.
(§2) In the second blank, the cell line culture and the compound being tested (but not virus) were incubated together to measure the toxicity of the drug to the cellline. The viability of the cells was measured as a function of concentration of the compound, after holding for seven days. […]
(§3) Finally, the protective effects of the test compounds were measured. Each cell culture and test compound were incubated with the virus and the viability of the cells was measured as a function of compound concentration after holding for six or seven days. […] At this point, cell viability increases steadily toward 100% unless the toxic effect of the compound (as measured in the second blank) takes effect. […] The therapeutic index TI50 is calculated as IC50/EC50.
(§4) Values of test compound concentrations required for between 20 and 50% reduction of the viral cytopathic effect can also be determined. […]

[2] = parameters: species or system mice; details: mouse, in vivo, iv, 10 mg/kg/day
Text: Initial studies on the toxicity of the compound of Example 1 were made on mice.
for 5 days Per Day Test Toxicity

[3] = tested on: HIV; assay: microbe, parasite or virus in culture; type: cell-based
Experimental: as §1
(§5) In the second blank, the cell line culture and the compound being tested (but not virus) were incubated together to measure the toxicity of the drug to the cellline. The viability of the cells was measured as a function of concentration of the compound, after holding for seven days. Typically, the cells survive at low compound concentrations, but at some higher concentration, toxicity of the compound is manifested and the cells die. The concentration of the test compound that results in 50% inhibition of cell growth is defined as the IC50.
(§6) Finally, the protective effects of the test compounds were measured. Each cell culture and test compound were incubated with the virus and the viability of the cells was measured as a function of compound concentration after holding for six or seven days. If the compound is active in protecting the cells against the virus, there is typically low cell viability until an effective concentration of the test compound is reached. At this point, cell viability increases steadily toward 100% unless the toxic effect of the compound (as measured in the second blank) takes effect. The concentration of the test compound that results in 50% "control," i.e., a 50% reduction of the viral cytopathic effect, is defined as the EC 50. The therapeutic index TI50 is calculated as IC50/EC50.
(§7) Values of test compound concentrations required for between 20 and 50% reduction of the viral cytopathic effect can also be determined. Such compounds are classified as moderately active.
(§8) The compounds were tested to determine their reduction of HIV cytopathic effect on the human cell lines CEM and MT2. Tests were done by innoculating these cell lines either with free HIV (V) or with a virus Previously cultured with host cells (C). Thus, in Table III the designation CEMV means CEM line cells innoculated with free virus and MT2C means MT2 cells innoculated with cultured viral infected MT2 cells. In some cases the compound was also tested on a cell line together with a sub-effective amount of the known HIV viricide AZT. This is done to test possible synergistic effects. Such a test on the CEM line is denoted CEMZ.
(§9) 1) T4 lymphocytes (CEM cell line) are exposed to HIV at a virus to cell ratio of approximately 0.05 and plated along with non-infected control cells in 96-well microtiter plates.
(§10) 2) Each candidate agent is dissolved in dimethyl sulfoxide (unless otherwise indicated), then diluted 1:200 in cell culture medium. Further dilutions (five-fold) are prepared before adding to an equal volume of medium containing either infected or noninfected cells.
(§11) 3) Cultures are incubated at 37° C. in a 5% carbon dioxide atmosphere for seven days (if six days the CEMV test is identified as CEM-6).
(§12) 4) The tetrazolium salt, XTT, is added to all wells, and cultures are incubated to allow formazan color development by viable cells.
(§13) 5) Individual wells are analyzed spectrophotometrically to quantity formazan production, and in addition are viewed microscopically for detection of viable cells and confirmation of protective activity.
(§14) 6) Drug-treated virus-infected cells are compared with drug-treated non-infected cells and with other appropriate controls (untreated infected and untreated non-infected cells, drug-containing wells without cells, etc.) on the same plate.
7) A determination of activity is made. […]

[4] = tested on: HIV; assay: Reduction of HIV cytopathic effect, CEMZ (CEM line with sub-effective amount of AZT); type: cell-based; details: CEM cells, read-out: Activity of Anti-HIV Compounds (EC50), CEMZ
Experimental: as §1, §5, §6, §7, §8

[5] = tested on: HIV; assay: Reduction of HIV cytopathic effect, CEMC (CEM cells, virus previously cultured with host cells); type: cell-based; details: for EC50: Human immunodeficiency virus 1, CCRF-CEM, read-out: Activity of Anti-HIV Compounds (EC50), CEMC
Experimental: as §1, §5
as §6, with “The concentration of the test compound that results in 50% "control," i.e., a 50% reduction of the viral cytopathic effect, is defined as the EC 50.” left out
as §4
5) Individual wells are analyzed spectrophotometrically to quantity formazan production, and in addition are viewed microscopically for detection of viable cells and confirmation of protective activity. […]

[6] = tested on: HIV; assay: Reduction of HIV cytopathic effect, MT2C (MT2 cells inoculated with cultured virus-infected MT2 cells); type: cell-based
Experimental: as §1, §2, §3, §4

[7] = tested on: CEM cells; assay: Toxicity of test compound to uninfected CEM cell line (growth inhibition); type: cell-based, human; details: Homo sapiens, CCRF-CEM; CEM cells, uninfected, Table III; read-out: IC50 (50% inhibition of cell growth)
Experimental: as §5, §9, §10, §11, §12, §13, §14
(§15) The compound of Example 3, viz., methyl 2-chloro-5-[[(5,6-dihydro-2-methyl-1,4-oxathiin-3-yl)carbonyl]amino]benzoate, was tested against the H9/HTLV-IIIB (HIV-I) virus employing the CEM line of host cells and using free virus innoculation (denoted CEM-V). […] All concentrations are expressed in moles per liter.
(§16) The dashed line connecting the square symbols depicts the percentage of surviving uninfected cells treated with the sample relative to the same uninfected, untreated controls. This line expresses the in-vitro growth inhibitory properties of the sample and represents the second blank test.

[8] = as above; type: cell-based, human; details: human, cem cells, read-out: UNINFECTED CULTURE Response (%)
Experimental: as §5, §9, §10, §11, §12, §13, §14, §15, §16

[9] = tested on: HIV; assay: HIV antiviral activity with addition delayed after infection; type: cell-based
[10] = tested on: succinate dehydrogenase complex; details: mitochondria from Ustilago maydis, White et al. (1978); cited from earlier work
[11] = tested on: HIV; assay: Reduction of HIV cytopathic effect, CEM-IW protocol; type: cell-based; details: inhibition of viral cytopathic effect, asterisk: CEMIW protocol
[12] = tested on: HIV; assay: Reduction of HIV cytopathic effect, CEM-6 (CEMV test, six days); type: cell-based; details: inhibition of viral cytopathic effect, CEM cells, 8640 min
Experimental: as §1, §6, §7, §8, §9, §10, §11, §12, §13, §14

[13] = tested on: various fungi; details: variety of crops; cited from earlier work
[14] = CEM cells, free HIV, read-out: Activity of Anti-HIV Compounds (EC50), CEMV
[15] = Human immunodeficiency virus 1, CCRF-CEM
[16] = Human immunodeficiency virus 1, CCRF-CEM, CEM cells, free HIV, read-out: Activity of Anti-HIV Compounds (EC50), CEMV

## CC1=C(C(=O)Nc2ccc(Cl)c(C(=O)OC(C)C)c2)SCCO1 [Compound 1, 1-Methylethyl 2-chloro-5-[[(5,6-dihydro-2-methyl-1,4-oxathiin-3-yl)carbonyl]amino]benzoate]
[1]
  EC50: 2.6 µM
[2]
  Result, Toxicity: No visible sign

## CC1=C(C(=O)Nc2cc(C(=O)OC(C)C)c(Cl)cc2F)SCCO1 [Compound 2, 1-Methylethyl 2-chloro-5-[[(5,6-dihydro-2-methyl-1,4-oxathiin-3-yl)carbonyl]amino]-4-fluorobenzoate]
[3]; [14]
  EC50: 1.3 µM
[4]; [15]
  EC50: 1.8 µM
[1]
  EC50: 14.4 µM
[5]
  EC50: 3.5 µM
[6]; Human immunodeficiency virus 1, MT2, MT2 cells inoculated with cultured viral infected MT2 cells, read-out: Activity of Anti-HIV Compounds (EC50), MT2C
  EC50: 3.2 µM

## COC(=O)c1cc(NC(=O)C2=C(C)OCCS2)ccc1Cl [Compound 3, Methyl 2-chloro-5-[[(5,6-dihydro-2-methyl-1,4-oxathiin-3-yl)carbonyl]amino]benzoate]
[3]; CEM-V, Figure I, point 6
  concentration of maximum effect: about 1.7×10^-5 molar
[3]; CEM-V, Table III
  CONCLUSION: ACTIVE
[3]; Human immunodeficiency virus 1, CCRF-CEM, 1.72 × 10^-4 Molar, read-out: INFECTED CULTURE Response (%)
  viability at 172 µM: 10.7%
[3]; Human immunodeficiency virus 1, CCRF-CEM, 1.72 × 10^-5 Molar, read-out: INFECTED CULTURE Response (%)
  viability at 17.2 µM: 89.2%
[3]; Human immunodeficiency virus 1, CCRF-CEM, 1.72 × 10^-7 Molar, read-out: INFECTED CULTURE Response (%)
  viability at 0.172 µM: 23.3%
[3]; Human immunodeficiency virus 1, CCRF-CEM, 5.44 × 10^-5 Molar, read-out: INFECTED CULTURE Response (%)
  viability at 54.4 µM: 86.1%
[3]; Human immunodeficiency virus 1, CCRF-CEM, 5.45 × 10^-6 Molar, read-out: INFECTED CULTURE Response (%)
  viability at 5.45 µM: 78.8%
[3]; Human immunodeficiency virus 1, CCRF-CEM, 5.46 × 10^-7 Molar, read-out: INFECTED CULTURE Response (%)
  viability at 0.546 µM: 15.7%
[3]; Human immunodeficiency virus 1, CCRF-CEM, 5.47 × 10^-8 Molar, read-out: INFECTED CULTURE Response (%)
  viability at 0.0547 µM: 15.3%
[3]; Human immunodeficiency virus 1, IIIB, CEM-V, H9/HTLV-IIIB (HIV-I), Table III, read-out: EC50 (50% reduction in the viral cytopathic effect)
  EC50: 1.91 µM
[3]; Human immunodeficiency virus 1, CEM-V, Figure I, point 5, read-out: concentration at which the compound began to show inhibition of the viral cytopathic effect
  minimal effective concentration: ~0.55 µM
[7]
  IC50: 101 µM
[8]; 1.72 × 10^-4 Molar
  viability at 168 h, 172 µM: 10.1%
[8]; 1.72 × 10^-5 Molar
  viability at 168 h, 17.2 µM: 95.7%
[8]; 1.72 × 10^-6 Molar
  viability at 168 h, 1.72 µM: 84.6%
[8]; 1.72 × 10^-7 Molar
  viability at 168 h, 0.172 µM: 86.8%
[8]; 5.44 × 10^-5 Molar
  viability at 168 h, 54.4 µM: 97%
[8]; 5.45 × 10^-6 Molar
  viability at 168 h, 5.45 µM: 108%
[8]; 5.46 × 10^-7 Molar
  viability at 168 h, 0.546 µM: 84%
[8]; 5.47 × 10^-8 Molar
  viability at 168 h, 0.0547 µM: 86.8%
[9]; delays of up to twenty hours
  protection with delayed addition: delays of up to twenty hours will still offer some protection
[9]; up to eight hours after infection
  full HIV antiviral activity after infection: full HIV antiviral activity for up to eight hours after infection

## CCOC(=O)c1cccc(NC(=O)C2=C(C)OCCS2)c1 [Compound 8, Ethyl 3-[[(5,6-dihydro-2-methyl-1,4-oxathiin-3-yl)carbonyl]amino]benzoate]
[5]; inhibition of viral cytopathic effect
  Activity class of Anti-HIV Compounds, CEMC: MA (moderate activity (MA), that is, inhibition between approximately 20 and 50%)
[10]
  inhibition of succinate dehydrogenase complex: inhibitors of succinate dehydrogenase complex

## Cc1oc(C)c(C(=O)Nc2ccc(Cl)c(C(=O)OC(C)C)c2)c1C [Compound 16, 1-Methylethyl 2-chloro-5-[[(2,4,5-trimethyl-3-furanyl)carbonyl]amino]benzoate]
[4]; [15]
  EC50: 0.9 µM

## Cc1ccoc1C(=O)Nc1ccc(Cl)c(C(=O)OC(C)C)c1 [Compound 17, 1-Methylethyl 2-chloro-5-[[(3-methyl-2-furanyl)carbonyl]amino]benzoate]
[3]; [16]
  EC50: 3.3 µM
[4]; [15]
  EC50: 7.9 µM

## Cc1ccccc1C(=O)Nc1ccc(Cl)c(C(=O)OC(C)C)c1 [Compound 23, 1-Methylethyl 2-chloro-5-[(2-methylbenzoyl)amino]benzoate]
[3]; [14]
  EC50: 5.6 µM
[3]; [16]
  EC50: 5.8 µM
[4]; [15]
  EC50: 1.1 µM

## CCCOC(=O)c1cc(NC(=O)c2ccccc2C)ccc1Cl [Compound 24, Propyl 2-chloro-5-[(2-methylbenzoyl)amino]benzoate]
[4]; [15]
  EC50: 12 µM

## CC(C)OC(=O)c1cc(NC(=O)c2ccccc2F)ccc1Cl [Compound 25, 1-Methylethyl 2-chloro-5-[(2-fluorobenzoyl)amino]benzoate]
[4]
  EC50: 34.4 µM and 39.4 µM

## CC1=C(C(=O)Nc2ccc(Cl)cc2)SCCS1 [Compound 26, N-(4-Chlorophenyl)-5,6-dihydro-3-methyl-1,4-dithiin-2-carboxamide]
[5]
  EC50: 35.5 µM
[6]; inhibition of viral cytopathic effect, MT2 cells, cultured virus
  Activity class of Anti-HIV Compounds, MT2C: MA (moderate activity (MA), that is, inhibition between approximately 20 and 50%)

## Cc1nc(C)c(C(=O)Nc2ccc(Cl)c(C(=O)OC(C)C)c2)s1 [Compound 94]
[11]
  Activity class of Anti-HIV Compounds, CEM-IW: MA (moderate activity (MA), that is, inhibition between approximately 20 and 50%)
[12]
  Activity class of Anti-HIV Compounds, CEM-6: MA (moderate activity (MA), that is, inhibition between approximately 20 and 50%)

## CC1=C(C(=O)Nc2ccccc2)SCCO1 [carboxin, 5,6-dihydro-2-methyl-N-phenyl-1,4-oxathiin-3-carboxamide]
[13]
  control of fungi by seed treatment: providing control by seed treatment of various fungi

## COC(=O)c1cccc(NC(=O)C2=C(C)OCCS2)c1 [methyl 3-[[(5,6-dihydro-2-methyl-1,4-oxathiin-3-yl)carbonyl]amino]benzoate, reference compound]
[10]
  inhibition of succinate dehydrogenase complex: inhibitors of succinate dehydrogenase complex
